Patent US12077503B2, “Substituted cyclic amides and their use as herbicides” (FMC CORPORATION, priority 2015, dated 2024)

Columns and labels:
Assay type in all cases: in vivo
[1] = tested on: barnyardgrass (Echinochloa crus-galli); assay: Test A preemergence; settings: for Plant response rating, Barnyardgrass: 125 g ai/ha; for Barnyardgrass plant response rating (0 to 100 scale, 0 is no effect, 100 is complete control): visual injury approx. 10 d
Source text: (§1) Seeds of plant species selected from barnyardgrass (Echinochloa crus-galli), Kochia (Kochia scoparia), ragweed (common ragweed, Ambrosia elatior), ryegrass, Italian (Italian ryegrass, Lolium multiflorum), crabgrass, large (Digitaria sanguinalis), giant foxtail (Setaria faberii), green foxtail (Setaria viridis), morningglory (Ipomoea spp.), pigweed (Amaranthus retroflexus), velvetleaf (Abutilon theophrasti), wheat (Triticum aestivum), and corn (Zea mays) were planted into a blend of loam soil and sand and treated preemergence with a directed soil spray using test chemicals formulated in anon-phytotoxic solvent mixture which included a surfactant.
(§2) At the same time, plants selected from these crop and weed species and also blackgrass (Alopecurus myosuroides), and Galium (catchweed bedstraw, Galium aparine) were planted in pots containing the same blend of loam soil and sand and treated with postemergence applications of test chemicals formulated in the same manner. Plants ranged in height from 2 to 10 cm and were in the one- to two-leaf stage for the postemergence treatment. Treated plants and untreated controls were maintained in a greenhouse for approximately 10 d, after which time all treated plants were compared to untreated controls and visually evaluated for injury. Plant response ratings, summarized in Table A, are based on a 0 to 100 scale where 0 is no effect and 100 is complete control. A dash (-) response means no test result.

[2] = tested on: ragweed (common ragweed, Ambrosia elatior); assay: Test A preemergence; settings: for Plant response rating, Ragweed: 125 g ai/ha; for Ragweed plant response rating (0 to 100 scale, 0 is no effect, 100 is complete control): visual injury approx. 10 d
Source text: as §1, §2

[3] = tested on: giant foxtail (Setaria faberii); assay: Test A preemergence; settings: for Plant response rating, Foxtail, Giant: 125 g ai/ha; for Foxtail, Giant plant response rating (0 to 100 scale, 0 is no effect, 100 is complete control): visual injury approx. 10 d
Source text: as §1, §2

[4] = tested on: ryegrass, Italian (Italian ryegrass, Lolium multiflorum); assay: Test A preemergence; settings: for Plant response rating, Ryegrass, Italian: 125 g ai/ha; for Ryegrass, Italian plant response rating (0 to 100 scale, 0 is no effect, 100 is complete control): visual injury approx. 10 d
Source text: as §1, §2

[5] = tested on: pigweed (Amaranthus retroflexus); assay: Test A preemergence; settings: for Plant response rating, Pigweed: 125 g ai/ha; for Pigweed plant response rating (0 to 100 scale, 0 is no effect, 100 is complete control): visual injury approx. 10 d
Source text: as §1, §2

Kochia (Kochia scoparia) [6] = assay: Test A preemergence; settings: for Plant response rating, Kochia: 125 g ai/ha; for Kochia plant response rating (0 to 100 scale, 0 is no effect, 100 is complete control): visual injury approx. 10 d
Source text: as §1, §2

[7] = tested on: barnyardgrass (Echinochloa crus-galli); assay: Test A postemergence
Source text: as §1, §2

[8] = tested on: ragweed (common ragweed, Ambrosia elatior); assay: Test A postemergence
Source text: as §1, §2

[9] = tested on: Galium (catchweed bedstraw, Galium aparine); assay: Test A postemergence
Source text: as §1, §2

[10] = tested on: giant foxtail (Setaria faberii); assay: Test A postemergence
Source text: as §1, §2

[11] = tested on: ryegrass, Italian (Italian ryegrass, Lolium multiflorum); assay: Test A postemergence
Source text: as §1, §2

[12] = tested on: pigweed (Amaranthus retroflexus); assay: Test A postemergence
Source text: as §1, §2

corn (Zea mays) = assay: Test A postemergence
Source text: as §1, §2

[13] = tested on: blackgrass (Alopecurus myosuroides); assay: Test A postemergence
Source text: as §1, §2

Kochia (Kochia scoparia) [14] = assay: Test A postemergence
Source text: as §1, §2

[15] = tested on: wheat (Triticum aestivum); assay: Test A postemergence
Source text: as §1, §2

[16] = Preemergence, visual injury after approximately 10 d, 0 to 100 scale where 0 is no effect and 100 is complete control
[17] = 125 g ai/ha, postemergence, visual rating after approx. 10 d, 0 to 100 scale (0 no effect, 100 complete control)
[18] = Postemergence, 500 g ai/ha, 0 to 100 scale where 0 is no effect and 100 is complete control
[19] = preemergence, 0 to 100 scale (0 no effect, 100 complete control)
[20] = Preemergence, 500 g ai/ha, 0 is no effect, 100 is complete control
[21] = 500 g ai/ha, postemergence, 0 to 100 scale, 0 no effect, 100 complete control
[22] = Postemergence, 125 g ai/ha, visual injury, 0 to 100 scale (0 no effect, 100 complete control), approx. 10 d
[23] = 125 g ai/ha, postemergence, visual injury rating on 0 to 100 scale (0 no effect, 100 complete control), approx. 10 d

CN1CC(c2cccc(C(F)(F)F)c2)C(C(=O)Nc2ccccc2)C1=O (centres unmarked) [Compound 577]
Plant response rating, Barnyardgrass [1, 16]: 90
Barnyardgrass plant response rating (0 to 100 scale, 0 is no effect, 100 is complete control) ([1]; Preemergence, 500 g ai/ha): 100
Plant response rating, Ragweed [2, 16]: 0
Ragweed plant response rating (0 to 100 scale, 0 is no effect, 100 is complete control) ([2]; Preemergence, 500 g ai/ha): 40
Plant response rating, Foxtail, Giant [3, 16]: 90
Foxtail, Giant plant response rating (0 to 100 scale, 0 is no effect, 100 is complete control) ([3]; Preemergence, 500 g ai/ha): 100
Plant response rating, Ryegrass, Italian [4, 16]: 40
Ryegrass, Italian plant response rating (0 to 100 scale, 0 is no effect, 100 is complete control) ([4]; Preemergence, 500 g ai/ha): 80
Plant response rating, Pigweed [5, 16]: 0
Pigweed plant response rating (0 to 100 scale, 0 is no effect, 100 is complete control) ([5]; Preemergence, 500 g ai/ha): 40
Plant response rating, Kochia (Kochia (Kochia scoparia) [6]; [16]): 50
Kochia plant response rating (0 to 100 scale, 0 is no effect, 100 is complete control) (Kochia (Kochia scoparia) [6]; Preemergence, 500 g ai/ha): 70
Plant response rating, Barnyardgrass [7, 17]: 90
Plant response rating, Barnyardgrass [7, 18]: 100
Plant response rating, Ragweed [8, 17]: 0
Plant response rating, Ragweed [8, 18]: 30
Plant response rating, Galium [9, 17]: 30
Plant response rating, Galium [9, 18]: 50
Plant response rating, Foxtail, Giant [10, 17]: 90
Plant response rating, Foxtail, Giant [10, 18]: 90
Plant response rating, Ryegrass, Italian [11, 17]: 30
Plant response rating, Ryegrass, Italian [11, 18]: 30
Plant response rating, Pigweed [12, 17]: 0
Plant response rating, Pigweed [12, 18]: 0
Plant response rating, Corn (corn (Zea mays); [17]): 60
Plant response rating, Corn (corn (Zea mays); [18]): 80
Plant response rating, Blackgrass [13, 17]: 70
Plant response rating, Blackgrass [13, 18]: 80
Plant response rating, Kochia (Kochia (Kochia scoparia) [14]; [17]): 0
Plant response rating, Kochia (Kochia (Kochia scoparia) [14]; [18]): 40
Plant response rating, Wheat [15, 17]: 40
Plant response rating, Wheat [15, 18]: 70

O=C1NCC(c2cccc(O)c2)C1C(=O)Nc1cccc(F)c1F (racemic) [Compound 384]
Plant response rating, Barnyardgrass [1, 19]: 0
Barnyardgrass plant response rating (0 to 100 scale) [1, 20]: 0
Plant response rating, Ragweed [2, 19]: 0
Ragweed plant response rating (0 to 100 scale) [2, 20]: 0
Plant response rating, Foxtail, Giant [3, 19]: 0
Foxtail, Giant plant response rating (0 to 100 scale) [3, 20]: 0
Plant response rating, Ryegrass, Italian [4, 19]: 0
Ryegrass, Italian plant response rating (0 to 100 scale) [4, 20]: 0
Plant response rating, Pigweed [5, 19]: 0
Pigweed plant response rating (0 to 100 scale) [5, 20]: 0
Plant response rating, Kochia (Kochia (Kochia scoparia) [6]; [19]): 0
Kochia plant response rating (0 to 100 scale) (Kochia (Kochia scoparia) [6]; [20]): 0
Plant response rating, Barnyardgrass [7, 21]: 0
Plant response rating, Barnyardgrass [7, 22]: 0
Ragweed plant response rating [8, 23]: 0
Plant response rating, Ragweed [8, 21]: 0
Galium plant response rating [9, 23]: 0
Plant response rating, Galium [9, 21]: 0
Foxtail, Giant plant response rating [10, 23]: 0
Plant response rating, Foxtail, Giant [10, 21]: 0
Ryegrass, Italian plant response rating [11, 23]: 0
Plant response rating, Ryegrass, Italian [11, 21]: 0
Pigweed plant response rating [12, 23]: 0
Plant response rating, Pigweed [12, 21]: 0
Corn plant response rating (corn (Zea mays); [23]): 0
Plant response rating, Corn (corn (Zea mays); [21]): 0
Plant response rating, Blackgrass [13, 21]: 0
Plant response rating, Blackgrass [13, 22]: 0
Kochia plant response rating (Kochia (Kochia scoparia) [14]; [23]): 0
Plant response rating, Kochia (Kochia (Kochia scoparia) [14]; [21]): 0
Wheat plant response rating [15, 23]: 0
Plant response rating, Wheat [15, 21]: 0

CN1CC(c2cccc(C(F)(F)F)c2)C(C(=O)Nc2ccc(F)cc2F)C1=O (centres unmarked) [Compound 571]
Plant response rating, Barnyardgrass [1, 16]: 90
Barnyardgrass plant response rating (0 to 100 scale, 0 is no effect, 100 is complete control) ([1]; Preemergence, 500 g ai/ha): 90
Plant response rating, Ragweed [2, 16]: 0
Ragweed plant response rating (0 to 100 scale, 0 is no effect, 100 is complete control) ([2]; Preemergence, 500 g ai/ha): 0
Plant response rating, Foxtail, Giant [3, 16]: 90
Foxtail, Giant plant response rating (0 to 100 scale, 0 is no effect, 100 is complete control) ([3]; Preemergence, 500 g ai/ha): 100
Plant response rating, Ryegrass, Italian [4, 16]: 60
Ryegrass, Italian plant response rating (0 to 100 scale, 0 is no effect, 100 is complete control) ([4]; Preemergence, 500 g ai/ha): 80
Plant response rating, Pigweed [5, 16]: 30
Pigweed plant response rating (0 to 100 scale, 0 is no effect, 100 is complete control) ([5]; Preemergence, 500 g ai/ha): 80
Plant response rating, Kochia (Kochia (Kochia scoparia) [6]; [16]): 60
Kochia plant response rating (0 to 100 scale, 0 is no effect, 100 is complete control) (Kochia (Kochia scoparia) [6]; Preemergence, 500 g ai/ha): 80
Plant response rating, Barnyardgrass [7, 17]: 90
Plant response rating, Barnyardgrass [7, 18]: 100
Plant response rating, Ragweed [8, 17]: 0
Plant response rating, Ragweed [8, 18]: 0
Plant response rating, Galium [9, 17]: 50
Plant response rating, Galium [9, 18]: 70
Plant response rating, Foxtail, Giant [10, 17]: 90
Plant response rating, Foxtail, Giant [10, 18]: 90
Plant response rating, Ryegrass, Italian [11, 17]: 60
Plant response rating, Ryegrass, Italian [11, 18]: 60
Plant response rating, Pigweed [12, 17]: 20
Plant response rating, Pigweed [12, 18]: 30
Plant response rating, Corn (corn (Zea mays); [17]): 60
Plant response rating, Corn (corn (Zea mays); [18]): 80
Plant response rating, Blackgrass [13, 17]: 70
Plant response rating, Blackgrass [13, 18]: 80
Plant response rating, Kochia (Kochia (Kochia scoparia) [14]; [17]): 30
Plant response rating, Kochia (Kochia (Kochia scoparia) [14]; [18]): 60
Plant response rating, Wheat [15, 17]: 60
Plant response rating, Wheat [15, 18]: 70

CN1CC(c2ccc(Br)cc2)C(C(=O)Nc2ccc(F)cc2F)C1=O (centres unmarked) [Compound 566]
Plant response rating, Barnyardgrass [1, 16]: 90
Barnyardgrass plant response rating (0 to 100 scale, 0 is no effect, 100 is complete control) ([1]; Preemergence, 500 g ai/ha): 100
Plant response rating, Ragweed [2, 16]: 60
Ragweed plant response rating (0 to 100 scale, 0 is no effect, 100 is complete control) ([2]; Preemergence, 500 g ai/ha): 90
Plant response rating, Foxtail, Giant [3, 16]: 90
Foxtail, Giant plant response rating (0 to 100 scale, 0 is no effect, 100 is complete control) ([3]; Preemergence, 500 g ai/ha): 100
Plant response rating, Ryegrass, Italian [4, 16]: 20
Ryegrass, Italian plant response rating (0 to 100 scale, 0 is no effect, 100 is complete control) ([4]; Preemergence, 500 g ai/ha): 70
Plant response rating, Pigweed [5, 16]: 80
Pigweed plant response rating (0 to 100 scale, 0 is no effect, 100 is complete control) ([5]; Preemergence, 500 g ai/ha): 90
Plant response rating, Kochia (Kochia (Kochia scoparia) [6]; [16]): 70
Kochia plant response rating (0 to 100 scale, 0 is no effect, 100 is complete control) (Kochia (Kochia scoparia) [6]; Preemergence, 500 g ai/ha): 80
Plant response rating, Barnyardgrass [7, 17]: 90
Plant response rating, Barnyardgrass [7, 18]: 90
Plant response rating, Ragweed [8, 17]: 0
Plant response rating, Ragweed [8, 18]: 40
Plant response rating, Galium [9, 17]: 60
Plant response rating, Galium [9, 18]: 80
Plant response rating, Foxtail, Giant [10, 17]: 90
Plant response rating, Foxtail, Giant [10, 18]: 90
Plant response rating, Ryegrass, Italian [11, 17]: 30
Plant response rating, Ryegrass, Italian [11, 18]: 60
Plant response rating, Pigweed [12, 17]: 30
Plant response rating, Pigweed [12, 18]: 60
Plant response rating, Corn (corn (Zea mays); [17]): 0
Plant response rating, Corn (corn (Zea mays); [18]): 40
Plant response rating, Blackgrass [13, 17]: 20
Plant response rating, Blackgrass [13, 18]: 70
Plant response rating, Kochia (Kochia (Kochia scoparia) [14]; [17]): 80
Plant response rating, Kochia (Kochia (Kochia scoparia) [14]; [18]): 80
Plant response rating, Wheat [15, 17]: 0
Plant response rating, Wheat [15, 18]: 40
